How the values were obtained:
[1] = target: T1, VR1 (Rattus norvegicus, UniProt O35433); experiment: Two-electrode voltage clamp of VR1-injected oocytes: capsaicin, heat, heat plus ruthenium red; format: cell-based; settings: n=5; for mean inward current response ± s.e.m.: Vhold=-60 mV
T1 construct: open reading frame encoding a protein of 838 amino acids; expressed in transfected cells; host or cells: Xenopus laevis oocytes injected with VR1 cRNA
Description: To determine whether VR1 could mediate similar responses to heat in a different cellular environment, heat activation of VR1 was tested in the oocyte system. Oocytes injected with either VR1 cRNA or water were subjected to two-electrode voltage-clamp (Vhold=−60 mV) while the temperature of the perfusing buffer was raised from 22.7° C. to the level indicated, then held constant for 60 sec. (VR1, n =8; water, n=6 independent cells).
(§1) The current tracings shown in FIG. 17 were generated from representative VR1- or water-injected oocytes (Vhold=−60 mV) during successive applications of the indicated stimuli.

[2] = system: water-injected oocytes; experiment: Two-electrode voltage clamp of water-injected control oocytes: capsaicin, heat, heat plus ruthenium red; format: cell-based, Xenopus
Description: To determine whether VR1 could mediate similar responses to heat in a different cellular environment, heat activation of VR1 was tested in the oocyte system. Oocytes injected with either VR1 cRNA or water were subjected to two-electrode voltage-clamp (Vhold=−60 mV) while the temperature of the perfusing buffer was raised from 22.7° C. to the level indicated, then held constant for 60 sec. (VR1, n =8; water, n=6 independent cells). The asterisk indicates a significant difference from water-injected oocytes (T-test, P<0.0005).
as §1

[3] = target: T1, VR1; experiment: Whole-cell two-electrode voltage clamp of VR1-expressing Xenopus oocytes (vanilloid agonists and antagonists); format: cell-based; settings: for recovery of current response following agonist removal: washout; for Hill coefficient: from agonist concentration-response analysis in VR1-expressing oocytes
Description: Briefly, cRNA transcripts were synthesized from Not1-linearized VR1 cDNA templates using T7 RNA polymerase 17. Defolliculated Xenopus laevis oocytes were injected with 0.5-5 ng VR1 cRNA. Four to seven days after injection, two electrode voltage clamp recording was performed (Ehold=−60 mV for IC50 curve and thermal stimulation experiments, and […] for all other experiments) using a Geneclamp 500 amplifier (Axon Instruments) and a MacLab A/D converter (Maclab). The recording chamber was perfused at a rate of 2 ml/min with frog ringers solution containing (mM) 90 NaCl; 1.0 KCl, 2.4 NaHCO3, 0.1 BaCl2, 1.0 MgCl2, and 10 HEPES, pH 7.6. at room temperature. Prior to performing the store-operated current assays, oocytes were incubated for 1-2 hrs in calcium-free, barium-free frog ringers solution containing 1 mM EGTA and 1 μM Thapsigargin. During voltage clamp recording, these oocytes were intermittently exposed to frog ringer's solution containing 2 mM Ca2+ and no EGTA to detect calcium-dependent currents (15 second pulses at 2 minute intervals) (Petersen et al. 1995 Biochem J. 311:4144).
VR1 was expressed in Xenopus oocytes as described above (Example 3), except that CaCl2 (2 mM) was used in place of BaCl2 when generating the capsazepine inhibition curve. […] Membrane currents were recorded in the whole cell voltage clamp configuration (Vhold=−40 mV).

[4] = system: chick orthologue of rat VR1 (pCVR2); experiment: Electrophysiological and calcium-imaging analysis of HEK293 cells transfected with pCVR2; format: cell-based
[5] = target: T1, VR1; experiment: Hydrogen ion potentiation of capsaicin response in VR1-expressing oocytes; format: cell-based; settings: 10 μM capsaicin
Source text: To address this possibility, the effects of hydrogen ions on the cloned vanilloid receptor were examined using the oocyte expression system. […] The pH of the bath solution was changed during the experiment (as indicated by the horizontal bars in FIG. 13).

[6] = target: T1, VR1; experiment: Whole-cell patch clamp of VR1-transfected HEK293 cells, desensitization of capsaicin-evoked current; format: cell-based
Description: Patch-clamp recordings were carried out with transiently transfected HEK293 cells at 22° C. Standard bath solution for whole-cell recordings contained (mM) 140 NaCl, 5 KCl, 2 MgCl2, 2 CaCl2, 10 HEPES, 10 glucose, pH 7.4 (adjusted with NaOH). In calcium-free bath solution, CaCl2 was removed and 5 mM EGTA was added.
Bath solution for outside-out patch recordings and pipette solution for inside-out patch recordings contained (mM) 140 NaCl, 10 HEPES, pH 7.4 (adjusted with NaOH). Bath solution for inside-out patch recordings and pipette solutions for outside-out patch recordings and ion substitution experiments contained: (mM) 140 NaCl, 10 HEPES, 5 EGTA, pH 7.4 (adjusted with NaOH). Pipette solution for whole-cell recordings contained (mM) 140 CsCl (or 130 CsAspartate and 10 NaCl), 5 EGTA, 10 HEPES, pH 7.4 (adjusted with CsOH).
Whole-cell recording data were sampled at 20 kHz and filtered at 5 kHz for analysis (Axopatch 200 amplifier with pCLAMP software, Axon Instruments). Single-channel recording data were sampled at 10 kHz and filtered at 1 kHz. Permeability ratios for monovalent cations to Na (PX/PNa) were calculated as follows:

[7] = target: T2, VRRP-1 (Rattus norvegicus, UniProt Q9WUD2); experiment: Activation of VRRP-1 by capsaicin
T2 sequence (Q9WUD2 1-761): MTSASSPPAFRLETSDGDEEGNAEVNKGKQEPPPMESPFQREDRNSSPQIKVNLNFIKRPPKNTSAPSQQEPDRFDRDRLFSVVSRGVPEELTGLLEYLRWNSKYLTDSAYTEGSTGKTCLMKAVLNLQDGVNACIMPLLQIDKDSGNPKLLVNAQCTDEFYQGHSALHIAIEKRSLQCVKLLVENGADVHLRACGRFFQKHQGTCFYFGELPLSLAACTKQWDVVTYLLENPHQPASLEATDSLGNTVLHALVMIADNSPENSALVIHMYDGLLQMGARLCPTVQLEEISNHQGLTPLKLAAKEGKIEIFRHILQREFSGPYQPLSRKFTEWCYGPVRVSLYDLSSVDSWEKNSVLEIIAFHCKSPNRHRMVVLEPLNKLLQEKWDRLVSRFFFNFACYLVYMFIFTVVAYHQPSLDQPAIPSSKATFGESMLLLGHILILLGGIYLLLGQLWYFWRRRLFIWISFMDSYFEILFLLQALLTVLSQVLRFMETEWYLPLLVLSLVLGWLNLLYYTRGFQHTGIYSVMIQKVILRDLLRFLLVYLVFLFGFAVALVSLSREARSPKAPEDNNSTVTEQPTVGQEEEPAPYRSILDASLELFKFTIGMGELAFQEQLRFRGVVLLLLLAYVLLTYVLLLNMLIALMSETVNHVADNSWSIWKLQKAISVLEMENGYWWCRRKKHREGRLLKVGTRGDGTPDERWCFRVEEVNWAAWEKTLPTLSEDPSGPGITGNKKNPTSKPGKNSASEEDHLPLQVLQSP

T1 sequence (O35433 whole entry): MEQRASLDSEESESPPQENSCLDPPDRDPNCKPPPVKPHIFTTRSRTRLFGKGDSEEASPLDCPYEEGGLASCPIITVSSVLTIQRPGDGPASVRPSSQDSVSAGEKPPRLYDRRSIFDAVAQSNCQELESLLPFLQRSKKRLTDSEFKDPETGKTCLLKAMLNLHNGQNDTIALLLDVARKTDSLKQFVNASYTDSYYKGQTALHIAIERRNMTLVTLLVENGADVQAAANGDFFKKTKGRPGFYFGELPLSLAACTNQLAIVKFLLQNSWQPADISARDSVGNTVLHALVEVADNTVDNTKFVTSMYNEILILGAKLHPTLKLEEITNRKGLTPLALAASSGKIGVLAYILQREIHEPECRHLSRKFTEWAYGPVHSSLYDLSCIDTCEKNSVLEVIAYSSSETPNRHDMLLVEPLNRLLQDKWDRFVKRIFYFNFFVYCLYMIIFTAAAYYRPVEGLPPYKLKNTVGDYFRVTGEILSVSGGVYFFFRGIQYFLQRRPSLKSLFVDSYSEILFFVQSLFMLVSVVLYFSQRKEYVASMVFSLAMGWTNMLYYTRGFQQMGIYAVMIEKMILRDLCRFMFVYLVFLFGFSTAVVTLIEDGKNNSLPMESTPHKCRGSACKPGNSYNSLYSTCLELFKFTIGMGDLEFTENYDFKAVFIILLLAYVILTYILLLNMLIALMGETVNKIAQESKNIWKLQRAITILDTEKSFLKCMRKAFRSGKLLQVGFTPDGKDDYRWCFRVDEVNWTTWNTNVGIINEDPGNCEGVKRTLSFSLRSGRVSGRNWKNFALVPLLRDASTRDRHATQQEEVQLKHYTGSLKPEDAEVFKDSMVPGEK

Compound: COc1cc(CNC(=O)CCCC/C=C/C(C)C)ccc1O [capsaicin]
- mean inward current response ± s.e.m. ([1]; capsaicin 1 μM): 1221±148 nA
- response to capsaicin [2]: no response
- recovery of current response following agonist removal ([3]; VR1-expressing oocytes): returned rapidly to baseline
- Hill coefficient [3]: 2.08
- response of the encoded protein ([4]; capsaicin): not to capsaicin
- effect of reduced pH on capsaicin response [5]: did not augment
- decrease of response between first and third applications ([6]; absence of extracellular calcium, n=3): 4.7±2.3%
- decrease of response between first and third applications (desensitizing component) ([6]; calcium-containing bath solution, n=5): 87±4.3%
- activation of VRRP-1 [7]: does not appear to be activated

Compound: COc1ccc(CCCOC(Cn2ccnc2)c2ccc(OC)cc2)cc1 (centres unmarked) [SKF 96365]
- effect on capsaicin-evoked currents ([3]; SKF 96365 20 μM, VR1-expressing oocytes): no effect

Compound: C=C(C)[C@]12C[C@@H](C)[C@@]34O[C@](Cc5ccccc5)(O[C@@H]1[C@@H]3C=C(COC(=O)Cc1ccc(O)c(OC)c1)C[C@]1(O)C(=O)C(C)=C[C@@H]41)O2 [resiniferatoxin]
- EC50 [3]: 39.1 nM
- potency relative to capsaicin ([3]; EC50 comparison in VR1-expressing oocytes): approximately 20 fold
- recovery of current response following agonist removal ([3]; VR1-expressing oocytes): often failed to recover
- Hill coefficient [3]: 1.95
- response of the encoded protein ([4]; high doses of resiniferatoxin): responds

Compound: Oc1cc2c(cc1O)CN(C(=S)NCCc1ccc(Cl)cc1)CCC2 [capsazepine]
- IC50 ([3]; VR1-expressing oocytes, CaCl2 2 mM in place of BaCl2, read-out: IC50, block of capsaicin-evoked responses): 283 nM
- antagonism of responses to resiniferatoxin (50 nM) ([3]; capsazepine 5 μM): reversibly antagonized
- block of capsaicin activity (cap; 0.6 μM) ([3]; capsazepine 10 μM): reversible

Compound: N.N.N.N.N.N.N.N.N.N.N.N.N.N.[Cl-].[Cl-].[Cl-].[Cl-].[Cl-].[Cl-].[O-2].[O-2].[Ru+3].[Ru+3].[Ru+4] [ruthenium red]
- mean inward current response ± s.e.m. ([1]; heat (50° C.) plus ruthenium red 10 μM): 243±47 nA
- inhibition of heat response ([1]; ruthenium red 10 μM, heat 50° C., VR1-injected oocytes): 88±2%
- inhibition of heat response ([2]; ruthenium red 10 μM, n=5): 21±26%
- antagonism of responses to resiniferatoxin (50 nM) ([3]; ruthenium red 10 μM): reversibly antagonized
- block of capsaicin-evoked responses (cap; 0.6 μM) ([3]; ruthenium red 10 μM): blocked capsaicin-evoked responses

Reference: patent US6790629B2 (The Regents of the University of California, priority 1997, dated 2004)
